Peptide text beside a SMILES is read from it. * marks the point of attachment. Acryloyl = C=CC(=O)*
Key:
Assay in all cases: BH3 profiling, mitochondrial depolarization (JC-1) in permeabilized cells
Format in all cases: cell-based
[1] = tested on: BCR-ABL-expressing B-lineage acute lymphoblastic leukemia cells dependent on Mcl-1; conditions: BH3 profiling fits Mcl-1, sigmoidal dose-response (variable slope)
Protocol: (§1) Cell line identities were confirmed by STR profiling.
(§2) Peptides were titrated by serial dilution in MEB buffer (150 mM Mannitol, 10 mM HEPES-KOH pH 7.5, 50 mM KCl, 0.02 mM EGTA, 0.02 mM EDTA, 0.1% BSA and 5 mM Succinate) containing 20 μg/mL oligomycin, 50 μg/mL digitonin, 2 μM JC-1 and 10 mM 2-mercaptoethanol in 384-well plates. Controls for no depolarization (1% DMSO) and complete depolarization with the mitochondrial oxidative phosphorylation uncoupler FCCP (20 μM) were included for data normalization. […] 15 μL of cell suspension was added to each well containing 15 μL of treatment solution. […] To produce percent depolarization, the area under the resultant curve was calculated and normalized to the assay controls. Peptide titration curves were fit to sigmoidal dose-response curves using Graphpad PRISM seven to obtain EC50 values.

[2] = tested on: BCR-ABL-expressing B-lineage acute lymphoblastic leukemia cells dependent on Bcl-xL; conditions: BH3 profiling fits Bcl-xL, sigmoidal dose-response (variable slope), fit ambiguous
Protocol: as §1, §2

[3] = tested on: BCR-ABL-expressing B-lineage acute lymphoblastic leukemia cells dependent on Bfl-1; set-up: key to Bottom (best-fit value) / Top (best-fit value): % depolarization, normalized to DMSO (0) and FCCP (100) controls; conditions: BH3 profiling fits Bfl-1, sigmoidal dose-response (variable slope)
Protocol: as §1, §2

C=CC(=O)N[C@@H](Cc1c[nH]c2ccccc12)C(=O)N[C@H](C(=O)N[C@@H](CCCNC(=N)N)C(=O)N[C@@H](CCC(=O)O)C(=O)N[C@H](C(=O)N[C@@H](C)C(=O)N[C@@H](C)C(=O)NCC(=O)N[C@@H](CC(C)C)C(=O)N[C@@H](CCCNC(=N)N)C(=O)N[C@@H](CCCNC(=N)N)C(=O)N[C@@H](C)C(=O)N[C@@H](C)C(=O)N[C@@H](CC(=O)O)C(=O)N[C@@H](CC(=O)O)C(=O)N[C@H](C(=O)N[C@@H](CC(N)=O)C(=O)N[C@@H](C)C(=O)N[C@@H](CCC(N)=O)C(=O)N[C@H](C(=O)N[C@@H](CCC(=O)O)C(=O)N[C@@H](CCCNC(=N)N)C(N)=O)C(C)C)C(C)C)[C@@H](C)CC)C(C)C [FS2gX] (Acryloyl-WVREIAAGLRRAADDVNAQVER-NH2)
HillSlope (best-fit value) [1]: 0.1762 | Bottom (best-fit value) ([1]; constrained (0 < Bottom < 5 or Bottom < 5)): -6.58 | Top (best-fit value) ([1]; constrained (Top < 100 or Top > 78)): ~ 78 | Bottom (best-fit value) ([2]; constraint Bottom < 5): ~ -1647 | Top (best-fit value) ([2]; constraint Top > 78): ~ 78 | HillSlope (best-fit value) [2]: ~ -0.02698 | HillSlope (best-fit value) [3]: 0.7987 | Bottom (best-fit value) ([3]; constraint Bottom < 5): -3.828 | Top (best-fit value) ([3]; constraint Top > 78): 78.27 | LogEC50 (best-fit value) ([3]; x = Log [Peptide] M, 55-56 Y values analyzed): -8.01

— article PMC5464773 (eLife, 2017)
